The test system of the series is GENE-TOX genotoxicity assays, various organisms and cells. The series is described as follows: GENE-TOX mutagenicity studies. Particulars: for call: Assay Type: In vivo carcinogenicity studies. The source says:
GENE-TOX provides genetic toxicology (mutagenicity) test data from expert peer review of open scientific literature for more than 3,000 chemicals from the United States Environmental Protection Agency (EPA). GENE-TOX was established to select assay systems for evaluation, review data in the scientific literature, and recommend proper testing protocols and evaluation procedures for these systems.
GENE-TOX covers the years 1991 - 1998. It is no longer updated.
This is an archive assay for GENE-TOX mutagenicity studies.

Where [1] appears, read: Species/Cell Type: Drosophila melanogaster, Assay Type: Sex-linked recessive lethal gene mutation, Assay Code: SRL+, Evaluation Type: Evaluation A (Pre-1980).
Where [2] appears, read: Species/Cell Type: Mammalian polychromatic erythrocytes, Assay Type: Micronucleus test, chromosome aberrations, Assay Code: MNT+, Evaluation Type: Evaluation A (Pre-1980).
Setting [3] is: Species/Cell Type: Nonhuman, Assay Code: CCG+, Evaluation Type: Evaluation A (Pre-1980).
Setting [4] is: Species/Cell Type: Saccharomyces cerevisiae, Assay Type: Mitotic recombination or gene conversion, Assay Code: YEC+, Evaluation Type: Evaluation A (Pre-1980).
The mark [5] stands for this setting: Species/Cell Type: Salmonella typhimurium (one or more of the five standard strains: TA98, TA100, TA1535, TA1537, and TA1538), Assay Type: Histidine reverse gene mutation, Ames assay, Assay Code: SAL+, Evaluation Type: Evaluation A (Pre-1980).
Setting [6] is: Species/Cell Type: Salmonella typhimurium, Assay Type: Forward and reverse gene mutation, host-mediated assay, Assay Code: HMA+, Evaluation Type: Evaluation A (Pre-1980).
The mark [7] stands for this setting: Species/Cell Type: Salmonella typhimurium (one or more of the five standard strains: TA98, TA100, TA1535, TA1537, and TA1538), Assay Type: Histidine reverse gene mutation, Ames assay, Assay Code: SALT, Evaluation Type: Evaluation A (Pre-1980).
The mark [8] stands for this setting: Species/Cell Type: Salmonella typhimurium (one or more of the five standard strains: TA98, TA100, TA1535, TA1537, and TA1538), Assay Type: Histidine reverse gene mutation, Ames assay, Assay Code: SAL+*, Activation: With metabolic activation, Evaluation Type: Evaluation A (Pre-1980).
Where [9] appears, read: Species/Cell Type: Escherichia coli polA (W3119 vs P3478), Assay Type: Rec-assay, DNA effects (bacterial DNA repair), Assay Code: RE1+, Evaluation Type: Evaluation A (Pre-1980).
The mark [10] stands for this setting: Species/Cell Type: Saccharomyces cerevisiae, Assay Type: Mitotic recombination or gene conversion, Assay Code: YEH+, Evaluation Type: Evaluation A (Pre-1980).
[11] abbreviates: Species/Cell Type: Nonhuman, Assay Code: CCG+L, Evaluation Type: Evaluation A (Pre-1980).

Activity calls are given as the source filed them. The rule behind the calls is not given here.

Consider `S=P(N1CC1)(N1CC1)N1CC1`, for which the mutagenic call is “active; positive” under setting [1]; “active; positive” (Species/Cell Type: Human lymphocytes or leukocytes, Assay Type: Chromosome aberrations in vitro, Assay Code: CY7+, Evaluation Type: Evaluation A (Pre-1980)); “active; positive” (Species/Cell Type: Human lymphocytes, Assay Type: Sister-chromatid exchange (SCE) in vitro, Assay Code: SCL+D, Dose Response: With dose response, Evaluation Type: Evaluation B (Post-1980)); “active; positive” (Species/Cell Type: Human, Assay Type: Sister-chromatid exchange (SCE) in vitro, Assay Code: SC1+D, Dose Response: With dose response, Evaluation Type: Evaluation B (Post-1980)); “active; positive” under setting [2]; “active; positive” (Species/Cell Type: Mouse (C3H/10T1/2) cells, Assay Type: Cell transformation, Assay Code: CTH+, Evaluation Type: Evaluation A (Pre-1980)). The mutagenic call is, setting by setting: (Species/Cell Type: Mouse, Sex: Male, Assay Type: Heritable translocation test, chromosome aberrations, Assay Code: HTT+, Evaluation Type: Evaluation A (Pre-1980)) “active; positive”; (Species/Cell Type: Mouse, Sex: Male, Assay Type: Sperm morphology, Assay Code: SPI+, Evaluation Type: Evaluation A (Pre-1980)) “active; positive”; (Species/Cell Type: Nonhuman bone marrow, Assay Type: Chromosome aberrations, in vivo, Assay Code: CY#+D, Dose Response: With dose response, Evaluation Type: Evaluation A (Pre-1980)) “active; positive”; (Species/Cell Type: Nonhuman, Assay Type: Chromosome aberrations in vitro, Assay Code: CY&+, Evaluation Type: Evaluation A (Pre-1980)) “active; positive”; (Species/Cell Type: Nonhuman, Assay Type: Sister-chromatid exchange (SCE) in vitro, Assay Code: SC2+D, Dose Response: With dose response, Evaluation Type: Evaluation A (Pre-1980)) “active; positive”; (Species/Cell Type: Rodents, Sex: Male, Assay Type: Dominant lethal test, Assay Code: DLT+D, Dose Response: With dose response, Evaluation Type: Evaluation A (Pre-1980)) “active; positive”. The mutagenic call is “active; positive” under setting [4]; “active; positive” under setting [5]; “active; positive” under setting [6]; “active; positive” (Species/Cell Type: Vicia faba, Assay Type: Chromosome aberrations, Assay Code: VIC+D, Dose Response: With dose response, Evaluation Type: Evaluation A (Pre-1980)). For the same compound, under setting [3], the call was “active; positive”.
On to `O=NN(CCCCO)c1ccccc1`, for which the mutagenic call under setting [7] is “no conclusion”.
In the case of `Cc1ccc2c(C)c3ccc4ccccc4c3nc2c1`, under setting [8], the mutagenic call was “active; positive”.
Turning to `Cc1cc(=O)n(-c2ccccc2)n1C`, the mutagenic call (Species/Cell Type: Salmonella typhimurium (one or more of the five standard strains: TA98, TA100, TA1535, TA1537, and TA1538), Assay Type: Histidine reverse gene mutation, Ames assay, Assay Code: SAL-, Evaluation Type: Evaluation A (Pre-1980)) was “inactive; negative”.
For the compound `O=C(O)c1ccccc1[N+](=O)[O-]`, the mutagenic call under setting [5] was “active; positive”.
Turning to `COc1cc(O)c2c(c1)C(=O)c1cc(C)cc(O)c1C2=O`, the mutagenic call under setting [8] was “active; positive”.
Take `CN(C)N=Nc1ccccc1`: the mutagenic call by setting is: (Species/Cell Type: Drosophila melanogaster, Assay Type: Aneuploidy, partial sex chromosome loss, chromosome aberrations, Assay Code: DAP+M, Evaluation Type: Evaluation A (Pre-1980)) “active; positive”; under setting [1], “active; positive”; (Species/Cell Type: Drosophila melanogaster, Sex: Male, Assay Type: Heritable translocation test, chromosome aberrations, Assay Code: DHT+, Evaluation Type: Evaluation A (Pre-1980)) “active; positive”; (Species/Cell Type: Escherichia coli polA (W3110 vs P3478), Assay Type: Rec-assay, DNA effects (bacterial DNA repair), Assay Code: RE2+, Evaluation Type: Evaluation A (Pre-1980)) “active; positive”; under setting [9], “active; positive”; under setting [2], “active; positive”. The mutagenic call (Species/Cell Type: Neurospora crassa, Assay Type: Forward gene mutation, Assay Code: NEF+, Evaluation Type: Evaluation A (Pre-1980)) is “active; positive”; the mutagenic call (Species/Cell Type: Nonhuman lymphocytes or leukocytes, Assay Type: Chromosome aberrations in vivo, Assay Code: CY%-, Evaluation Type: Evaluation A (Pre-1980)) was “inactive; negative”; the mutagenic call (Species/Cell Type: Nonhuman, Assay Type: Sister-chromatid exchange (SCE) in vivo, Assay Code: SC3+D, Dose Response: With dose response, Evaluation Type: Evaluation A (Pre-1980)) is “active; positive”; the mutagenic call (Species/Cell Type: Saccharomyces cerevisiae, Assay Type: Forward and reverse gene mutation, mitotic recombination and gene conversion, host-mediated assay, Assay Code: HME+, Evaluation Type: Evaluation A (Pre-1980)) is “active; positive”; the mutagenic call under setting [4] is “active; positive”; the mutagenic call under setting [10] is “active; positive”. In addition, the call under setting [3] is “active; positive”.
On to `CCCOC(=O)c1cc(O)c(O)c(O)c1`, for which the mutagenic call (Species/Cell Type: Human, Assay Type: Sister-chromatid exchange (SCE) in vitro, Assay Code: SC1T, Evaluation Type: Evaluation B (Post-1980)) is “no conclusion”.
In the case of `O=NN(CCCO)CCCCO`, the mutagenic call under setting [7] is recorded as “no conclusion”.
On to `[Cl][Th]([Cl])([Cl])[Cl]`, for which the mutagenic call (Species/Cell Type: Bacillus subtilis (H17 vs M45), Assay Type: Rec-assay, spot test, DNA effects (bacterial DNA repair), Assay Code: REW-, Evaluation Type: Evaluation A (Pre-1980)) is “inactive; negative”.
As to `CNc1ccc(C(=C2C=CC(=[N+](C)C)C=C2)c2ccc(N(C)C)cc2)cc1`, the mutagenic call (Species/Cell Type: Saccharomyces cerevisiae, Assay Type: Reverse gene mutation, Assay Code: YER-, Evaluation Type: Evaluation A (Pre-1980)) is “inactive; negative”.
With `Cc1ccc(C)cc1`, for the setting “Species/Cell Type: Mammalian polychromatic erythrocytes, Assay Type: Micronucleus test, chromosome aberrations, Assay Code: MNTT, Evaluation Type: Evaluation B (Post-1980)”, the mutagenic call is given as “no conclusion”.
For `CCOS(=O)(=O)CCl`, where the note is “Species/Cell Type: Schizosaccharomyces pombe, Assay Type: Reverse gene mutation, Assay Code: YEZ+, Evaluation Type: Evaluation A (Pre-1980)”, the mutagenic call is “active; positive”.
Turning to `CNC(=O)Oc1ccccc1OC(C)C`, the mutagenic call (Species/Cell Type: Bacillus subtilis (H17 vs M45), Assay Type: Rec-assay, spot test, DNA effects (bacterial DNA repair), Assay Code: REWT, Evaluation Type: Evaluation A (Pre-1980)) is “no conclusion”; the mutagenic call (Species/Cell Type: Bacillus subtilis (H17 vs M45T), Assay Type: Rec-assay, spot test, DNA effects (bacterial DNA repair), Assay Code: REX-, Evaluation Type: Evaluation A (Pre-1980)) was “inactive; negative”; the mutagenic call (Species/Cell Type: Escherichia coli WP2, Assay Type: Tryptophan reverse gene mutation, Assay Code: WP2-, Evaluation Type: Evaluation A (Pre-1980)) was “inactive; negative”; the mutagenic call (Species/Cell Type: Saccharomyces cerevisiae, Assay Type: Mitotic recombination or gene conversion, Assay Code: YEC-, Evaluation Type: Evaluation A (Pre-1980)) was “inactive; negative”.
In the case of `O=NN1CCC(c2ccccc2)CC1`, the mutagenic call under setting [8] is “active; positive”.
For `Cc1c2c(c(CO)c3ccc4ccccc4c13)C=C[C@H](O)[C@H]2O`, the call (Species/Cell Type: Nonhuman, Assay Code: CCGT, Evaluation Type: Evaluation A (Pre-1980)) was “no conclusion”.
In the case of `CCNCC`, the mutagenic call (Species/Cell Type: Saccharomyces cerevisiae, Assay Type: Forward gene mutation, Assay Code: YEF-*, Activation: With metabolic activation, Evaluation Type: Evaluation A (Pre-1980)) was “inactive; negative”.
Regarding `C=CCCl`, the mutagenic call under setting [9] is “active; positive”, the mutagenic call under setting [4] is “active; positive” and the mutagenic call under setting [10] was “active; positive”.
`Oc1c(Br)cc(Br)c2cccnc12`: the mutagenic call under setting [7] is “no conclusion”.
On to `COc1ccc(C(=O)/C(Br)=C\C(=O)O)cc1`, for which, under setting [2], the mutagenic call is “active; positive”. The call under setting [11] is “active; positive”.
Regarding `CCN(CC)C(=O)OC1(SC)C(=O)c2ccccc2C1=O`, under setting [6], the mutagenic call was “active; positive”.
Take `Cc1ccc(C2CO2)cc1C` (configuration not stated): the mutagenic call is, setting by setting: (Species/Cell Type: Escherichia coli WP2, Assay Type: Tryptophan reverse gene mutation, Assay Code: WP2+D, Dose Response: With dose response, Evaluation Type: Evaluation A (Pre-1980)) “active; positive”; (Species/Cell Type: Escherichia coli WP2 UVRA, Assay Type: Tryptophan reverse gene mutation, Assay Code: WPU+D, Dose Response: With dose response, Evaluation Type: Evaluation A (Pre-1980)) “active; positive”.
`CC1=NN(c2ccc([N+](=O)[O-])cc2)C(=O)C1[N+](=O)[O-]` (configuration not stated): the mutagenic call by setting is: under setting [9], “active; positive”; under setting [5], “active; positive”.
Regarding `O=[N+]([O-])c1nccn1CC(O)CF` (configuration not stated), under setting [5], the mutagenic call is “active; positive”.
Regarding `N#Cc1c(Cl)c(Cl)c(Cl)c(C#N)c1Cl`, the mutagenic call (Species/Cell Type: Hordeum vulgare (barley), Assay Type: Chromosome aberrations, Assay Code: HOC-, Evaluation Type: Evaluation A (Pre-1980)) was “inactive; negative”. In addition, the call under setting [11] was “active; positive”.

Source of the values: PubChem BioAssay AID1259408 (Genetic Toxicology Data Bank (GENE-TOX), 2018).
